# Experimental data published in ChEMBL document CHEMBL4689842, “EUbOPEN Chemogenomics Library wave 1” (2021).
# Legend:
# Type in all cases: toxicity, cell-based
# Fibroblast = assay: Incucyte cell viability with human fibroblast; details: 10 µM, compound concentration 10 uM
# U2OS = assay: Incucyte cell viability with U2OS; details: human, 10 µM, compound concentration 10 uM
# HEK-293T = assay: Incucyte cell viability with HEK293T; details: human, 10 µM, compound concentration 10 uM
# [1] = 0 h, replicate number 1, timepoint 0 hours
# [2] = 6 h, replicate number 1, timepoint 6 hours
# [3] = 12 h, replicate number 1, timepoint 12 hours
# [4] = 18 h, replicate number 1, timepoint 18 hours
# [5] = 24 h, replicate number 1, timepoint 24 hours
# [6] = 6 h, replicate number 2, timepoint 6 hours
# [7] = 12 h, replicate number 2, timepoint 12 hours
# [8] = 24 h, replicate number 2, timepoint 24 hours
# [9] = 0 h, replicate number 2, timepoint 0 hours
# [10] = 18 h, replicate number 2, timepoint 18 hours
# Note: filed as whole numbers so only -1 and 0 and 1 occur.
SMILES,Growth Rate (Fibroblast; [1]),Growth Rate (Fibroblast; [2]),Growth Rate (Fibroblast; [3]),Growth Rate (Fibroblast; [4]),Growth Rate (Fibroblast; [5]),Growth Rate (U2OS; [1]),Growth Rate (U2OS; [6]),Growth Rate (U2OS; [3]),Growth Rate (U2OS; [4]),Growth Rate (U2OS; [5]),Growth Rate (U2OS; [8]),Growth Rate (HEK-293T; [9]),Growth Rate (HEK-293T; [2]),Growth Rate (HEK-293T; [3]),Growth Rate (HEK-293T; [4]),Growth Rate (HEK-293T; [5]),Growth Rate (Fibroblast; [6]),Growth Rate (HEK-293T; [1]),Growth Rate (Fibroblast; [7]),Growth Rate (Fibroblast; [10]),also measured
O=C(O)C1CN(Cc2ccc(OCc3ccc(Cl)c(Cl)c3)cc2)C1,1,0,0,0,0,0,0,1,0,1,0,0,0,0,0,0,–,–,–,–,Growth Rate (U2OS; [7]): 0
O=C(O)C1CN(Cc2ccc(-c3nc4cc(Cc5ccccc5F)ccc4s3)c(F)c2)C1,0,1,1,1,1,0,0,1,0,1,0,0,0,0,0,0,0,1,–,–,Growth Rate (U2OS; [7]): 0; Growth Rate (U2OS; [10]): 1
O=C([O-])c1cc2ccccc2c(Cc2c(O)c(C(=O)[O-])cc3ccccc23)c1O.[Na+].[Na+],0,1,1,1,1,0,1,0,0,0,1,–,1,1,1,1,–,0,–,–,Growth Rate (U2OS; [7]): 1
CN1CCc2c(c3ccccc3n2Cc2ccc(C(=O)NO)cc2)C1 [TUBASTATIN A],1,–,–,1,1,0,–,1,1,1,–,1,–,–,–,–,0,0,0,0,Growth Rate (U2OS; [2]): 1
CN(C)C(=O)Cn1cc(-c2nc([C@@](C)(c3ccc(-c4cnc(N)nc4)cc3)C3CC3)no2)cn1 [BI 665915],1,1,1,0,0,0,1,1,0,1,0,1,0,0,0,0,–,0,–,1,Growth Rate (Fibroblast; [8]): 1; Growth Rate (U2OS; [2]): 0; Growth Rate (HEK-293T; [7]): 1; Growth Rate (HEK-293T; [10]): 1; Growth Rate (HEK-293T; [8]): 1
CCCOc1ccc([C@H]2[C@H](C(=O)O)[C@@H](c3ccc4c(c3)OCO4)CN2CC(=O)Nc2c(CC)cccc2CC)cc1 [A-192621],0,1,1,1,1,–,–,0,0,0,1,–,0,0,0,0,0,0,–,–,Growth Rate (Fibroblast; [9]): 1; Growth Rate (U2OS; [2]): 0; Growth Rate (U2OS; [10]): 1; Growth Rate (HEK-293T; [10]): 1
CO[C@@H](C)c1c(Nc2ccc([C@H](N(C)C(=O)C3CCS(=O)(=O)CC3)C(F)(F)F)cc2)cnc2cc(Cl)nn12 [NVS-MALT1],–,0,0,0,0,0,1,1,1,1,–,1,–,0,0,0,1,0,1,1,Growth Rate (Fibroblast; [9]): 0; Growth Rate (Fibroblast; [8]): 1; Growth Rate (U2OS; [2]): 0; Growth Rate (U2OS; [7]): 0; Growth Rate (HEK-293T; [6]): 0
CC#CC(=O)N1CCC[C@H]1c1nc(-c2ccc(C(=O)Nc3ccccn3)cc2)c2c(N)nccn12 [ACALABRUTINIB],0,1,0,0,1,0,–,0,0,1,0,–,0,0,0,0,0,1,1,–,Growth Rate (Fibroblast; [8]): 0; Growth Rate (U2OS; [9]): 1; Growth Rate (U2OS; [2]): 0; Growth Rate (HEK-293T; [10]): 1
CCNC(=O)c1cc2c(N3CCOC[C@@H]3C)ccnc2n1C,0,1,1,1,1,0,0,0,0,0,1,0,0,0,1,0,0,1,0,0,Growth Rate (U2OS; [9]): 1; Growth Rate (U2OS; [7]): 1; Growth Rate (U2OS; [10]): 1; Growth Rate (HEK-293T; [8]): 1
Nc1ncnc2c1ccn2[C@@H]1O[C@H]([C@H](O)c2ccccc2)[C@@H](O)[C@H]1O,–,–,–,1,1,0,–,0,0,0,1,1,1,–,1,1,1,–,0,–,Growth Rate (Fibroblast; [9]): 0; Growth Rate (Fibroblast; [8]): 0; Growth Rate (U2OS; [2]): 0; Growth Rate (U2OS; [7]): 1; Growth Rate (U2OS; [10]): 1; Growth Rate (HEK-293T; [7]): 1
CC(C)Oc1ccc(-c2c[nH]cc2CN(C)CCN)cc1,0,–,–,1,1,0,–,1,0,0,1,1,–,–,–,–,0,0,0,0,Growth Rate (Fibroblast; [8]): 0; Growth Rate (U2OS; [2]): 0; Growth Rate (U2OS; [10]): 1; Growth Rate (HEK-293T; [8]): 1
Cl.Cl.Cl.c1ccc(N2CCN(Cc3nc4ccccc4[nH]3)CC2)nc1,0,–,–,–,1,0,0,1,1,1,–,0,1,1,1,0,–,1,1,1,Growth Rate (HEK-293T; [7]): 0
COCCOc1nc(-c2ccc(Cl)nc2)nc2c1CN(C(=O)c1ncn3ccccc13)CC2 [THPP-1],0,0,1,1,1,0,1,1,0,0,–,1,–,–,1,1,–,0,0,0,Growth Rate (Fibroblast; [8]): 0; Growth Rate (U2OS; [2]): 0; Growth Rate (HEK-293T; [6]): 0; Growth Rate (HEK-293T; [7]): 0; Growth Rate (HEK-293T; [8]): 0
CCOc1cn(-c2ccc(F)cc2C)nc1C(=O)Nc1ccc(Oc2ccnc3cc(OC)c(OC)cc23)c(F)c1,1,0,0,0,0,–,–,1,1,1,–,–,1,–,–,1,1,0,1,1,Growth Rate (Fibroblast; [8]): 1; Growth Rate (HEK-293T; [6]): 0; Growth Rate (HEK-293T; [7]): 0; Growth Rate (HEK-293T; [10]): 1; Growth Rate (HEK-293T; [8]): 0
C[C@H](NC(=O)c1cnc2n1[C@](C)(Cc1ccc(C#N)cc1)C(=O)N2c1cc(Cl)c(F)c(Cl)c1)C(=O)NC1(c2ccccn2)CC1 [BI 1950],0,–,–,1,1,0,1,1,1,1,–,0,0,0,0,0,0,1,0,0,Growth Rate (Fibroblast; [9]): 1; Growth Rate (Fibroblast; [8]): 0
C[C@H](N)COC(=O)[C@@H](CCCCN)NC(=O)Cc1c(-c2ccc3ccccc3c2)[nH]c2c1ccc1ccccc12,0,0,1,0,0,–,0,1,1,1,–,–,1,1,1,1,–,0,0,–,Growth Rate (U2OS; [9]): 0; Growth Rate (HEK-293T; [6]): 0; Growth Rate (HEK-293T; [7]): 0; Growth Rate (HEK-293T; [10]): 0; Growth Rate (HEK-293T; [8]): 0
O=C(O)Cn1c(C(=O)Nc2nc(-c3ccccc3Cl)cs2)cc2ccccc21,0,1,0,1,0,–,0,1,0,1,–,–,1,1,1,1,0,0,–,0,Growth Rate (Fibroblast; [9]): 1; Growth Rate (U2OS; [9]): 0; Growth Rate (HEK-293T; [6]): 0; Growth Rate (HEK-293T; [7]): 0; Growth Rate (HEK-293T; [10]): 0; Growth Rate (HEK-293T; [8]): 0
CCOC(=O)CCNc1cc(N2CCc3ccccc3CC2)nc(-c2cccnc2)n1,–,1,1,1,1,–,–,1,1,1,0,1,0,0,0,0,0,–,–,0,Growth Rate (Fibroblast; [9]): 1; Growth Rate (U2OS; [9]): 0; Growth Rate (U2OS; [2]): 1; Growth Rate (U2OS; [7]): 0; Growth Rate (U2OS; [10]): 0
